From article PMC10705946, “^225Ac-iPSMA-RGD for Alpha-Therapy Dual Targeting of Stromal/Tumor Cell PSMA and Integrins” (International Journal of Molecular Sciences, 2023)

Key:
[1] = test system: HCT116 cells; experiment: Proliferation capability (clonogenic) assay; format: cell-based, human; conditions: 2 Gy and 4 Gy tested
Procedure: HCT116 cell line was used to evaluate the ability of a single cell to form colonies after exposure to ^225Ac-iPSMA-RGD treatment, in triplicate. We seeded 500 cells in each well (six-well plate) and treated them with 4.5 Bq/well (2 Gy), […] (4 Gy), and control (no treatment) for 1 h, dissolved in 2 mL of RPMI medium. After exposure, the treatments and medium were removed and replaced with fresh medium. The plates were incubated for 15 days. Surviving colonies were fixed for 10 min with 4% paraformaldehyde at room temperature and washed with type 1 water. Afterward, they were stained with 0.1% crystal violet for 30 min, washed with purified water, and dried. For quantification, 10% acetic acid was added for 5 min to extract the crystal violet and the absorbance was measured at 590 nm in a microplate absorbance reader (EpochTM; BioTek Instruments, Winooski, VT, USA). Statistical analysis was performed with two-way ANOVA followed by Tukey’s multiple comparisons test using GraphPad Prism 5.0 Software. Data are shown as mean ± SEM. A p < 0.05 was considered statistically significant.

[2] = test system: HCT116 cells; experiment: Reactive oxygen species, Muse Oxidative Stress kit; format: cell-based, human; conditions: for M1 (ROS plot gate) / M2 (ROS plot gate): representative plot
Procedure: Reactive oxygen species (ROS) were detected with the Muse™ Oxidative Stress kit, (Merck Millipore, Burlington, MA, USA) by measuring the produced intracellular superoxide radicals through dihydroethidium fluorescence. H2O2 (40 nM) was used as the positive control. Briefly, cells were seeded in cell culture flasks at a density of 1 × 10^6 cells and exposed to 4.5 Bq (2 Gy) and 9 Bq (4 Gy) of ^225Ac-iPSMA-RGD. Untreated cells were used as the control group. First, cells were trypsinized and suspended in 10 μL of 1X Assay Buffer. Then 190 μL of the oxidative stress reagent working solution was added to each cell suspension. The suspension was then gently vortexed and incubated at 37 °C with 5% CO2 for 30 min. Fluorescent intensities were examined by flow cytometry using a Muse Cell Analyzer (Merck Millipore, Burlington, MA, USA) and were performed in triplicate. Statistical analysis was performed with two-way ANOVA followed by Tukey’s multiple comparisons test using GraphPad Prism 5.0 Software. Data are shown as mean ± SEM. A p < 0.05 was considered statistically significant.

[3] = test system: HCT116 tumor and lung, spleen, kidney, liver tissues; experiment: Histology (H&E) and immunohistochemistry of organs and tumor; format: in vivo, mice
Procedure: Formalin-fixed paraffin-embedded samples (lung, spleen, kidney and tumor), were sectioned at 4 µm sections and stained with H&E. For immunohistochemical reactions, samples were deparaffinized, hydrated, and subjected to an antigen retrieval protocol (slides were immersed in a prewarmed Citrate-EDTA buffer solution (10mM citric acid, 2 mM EDTA, 0.05% Tween 20, pH 7.0) at 100 °C for 30 min. Endogenous peroxidase was then blocked with 0.9% hydrogen peroxide (H2O2) solution for 5 min. To prevent non-specific binding, the samples were incubated with 5% bovine serum albumin (BSA) for 10 min. After subsequent washes with phosphate-buffered saline (PBS)-Tween (0.05%), samples were incubated overnight at 4 °C with primary monoclonal rabbit anti- Ki-67 [SP6] antibody (Biocare Medi-cal-CRM 325A, Pacheco, CA, USA). After subsequent washing, samples were incubated with secondary HRP donkey anti-rabbit IgG (minimal x-reactivity) antibody (Biolegend-406401 San Diego, CA) for 1 h. For mitochondrial permeabilization processes estimation, the samples were incubated overnight at 4 °C with unconjugated Bcl-2 (C2) sc-7882 antibody (Santa Cruz Biotechnology Inc., Dallas, TX, USA). As a secondary antibody, we used m-IgG1 BP-HRP: sc-525408 (Santa Cruz Biotechnology Inc., Dallas, TX, USA). Samples were incubated for 1 h. For apoptotic cell estimation, unconjugated active (cleaved) Caspase-3 Monoclonal Antibody bsm-33199M (Bioss Inc., Woburn, MA, USA) was used. The samples were incubated overnight at 4 °C, and the secondary antibody was goat Anti-Mouse IgG (Fc specific)–peroxidase antibody A2554 (Millipore-Sigma Aldrich, Merck KGaA, Darmstadt, Germany). Samples were incubated for 1 h. Both primary and secondary antibodies were used at a 1:100 dilution. To visualize the immunoreactions, the samples were washed with distilled water and Tris-buffered saline-Tween (TBST) for 5 min, and the diaminobenzidine (DAB) (Dako Liquid DAB+ Substrate Chromogen System K3468) was applied for 60 s. Excess chromogen was removed by washing with PBS-Tween. Finally, the slides were counterstained with Harris hematoxylin, dehydrated, and coverslipped. As a negative control, immunoreactions were performed using the same method with PBS instead of the primary antibody. Images were captured using a Lumenera INFINITY X-32 MP camera in a Carl Zeiss Axiostar microscope.

[4] = HCT116 tumor-bearing mice, 11 days after administration (37 kBq)
Procedure: All animal procedures followed the Ethical Regulations for the Handling of Laboratory Animals (NOM-062-ZOO-1999) and the requirements of the Institutional Animal Care and Use Committee, according to an approved protocol (CICUAL-08-2018-2021). […] Mice were injected with 3.7 kBq (50 µL) of ^225Ac-iPSMA-RGD and necropsied at 1, 3, 24, 72, and 96 h (n = 3). The liver, heart, kidney, pancreas, lung, spleen, small intestine, and stomach were measured using the Francium-221 photopeak (218 keV) in a hyperpure germanium gamma spectrometer (Ortec, Atlanta, GA, USA). Results were recorded as a percentage of injected dose (%ID) per organ. Blood and bone samples were also dissected, and the associated activity was recorded as %ID/g. A second group of mice was inoculated subcutaneously with 1 × 10^6 HCT116 cells. […] Animals were necropsied on day 11 post-treatment, as described above. Radioisotopic/X-ray ex vivo images of the source organs and tumor were obtained in a preclinical imaging system (Bruker, XTREME, Billerica, MA, USA).

[5] = mice, day 11 after treatment
[6] = HCT116 tumor, immunohistochemistry

N=C(N)NCCC[C@@H]1NC(=O)[C@H](CCCCNC(=O)CCCN2C(=O)CC(SC[C@H](NC(=O)c3ccc(NNC(=S)Nc4ccc(CC5CN(CC(=O)O)CCN(CC(=O)O)CCN(CC(=O)O)CCN(CC(=O)O)CCN(CC(=O)O)CCN5CC(=O)O)cc4)nc3)C(=O)N[C@@H](Cc3ccc4ccccc4c3)C(=O)NCCCC[C@H](NC(=O)N[C@@H](CCC(=O)O)C(=O)O)C(=O)O)C2=O)NC(=O)[C@@H](Cc2ccccc2)NC(=O)[C@H](CC(=O)O)NC(=O)CNC1=O (stereo partly drawn) [^225Ac-iPSMA-RGD, ^225Ac-HEHA-HYNIC-iPSMA-RGD, metal not drawn]
Reduction of proliferation capability [1]: 65%
Increase of HCT116 cells with oxidative stress ([2]; 4 Gy): approximately 30%
M1 (ROS plot gate) ([2]; HCT116, 2 Gy): 90.14%
M2 (ROS plot gate) ([2]; HCT116, 2 Gy): 9.82%
M1 (ROS plot gate) ([2]; HCT116, 4 Gy): 59.30%
M2 (ROS plot gate) ([2]; HCT116, 4 Gy): 40.52%
Bcl-2 expression in tumor [3, 6]: inhibited the Bcl-2 expression
Caspase-3 activity in tumor [3, 6]: upregulated the Caspase-3 activity
Tumor proliferative activity (Ki67 expression) vs untreated mice [3, 6]: significantly lower
Histological (H&E) evaluation of lung, spleen, kidney and liver ([3]; treated mice vs untreated mice): no pathologic changes
Tissue retention in ex-vivo radioisotopic imaging [4]: the tissue accumulating the radiotracer for the longest time is the tumor
Renal or hepatic function damage [5]: no damage to renal or hepatic function was detected
Serum alanine aminotransferase [5]: 70 ± 8 IU/L
Serum aspartate aminotransferase [5]: 141 ± 19 IU/L
Serum creatinine [5]: 0.215 ± 0.071 mg/dL
